According to patent US6127519A, “Calcitonin derivatives” (Tsumura & Co., priority 1990, dated 2000):
Numbered stars: 1 amine (or outer) side, 2 acyl side, 3 side chain; on linkers, the order of the positions; unused ones are H or OH. Bridge positions count the residues as written; N and C are the ends. Square brackets hold non-standard residues; d marks the D form. Ends that are not written are not given here. Peptide text beside a SMILES is read from it. Suc = O=C(CCC(=O)[*:2])[*:1]; Orn = NCCC[C@H](N)C(=O)O

Test system: calcium concentration in the serum
Assay: Test 1: reduction of calcium level in serum after tail vein administration to rats
Format: in vivo, rats of the Wistar strain
Settings: 1 ml/kg tail vein, female Wistar rats
Summary of the method: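 Female Wistar rats, six weeks old, were assigned in groups of 4 and given the test peptides through the tail vein at 1 ml/kg. The peptides were dissolved in 1% aqueous sodium acetate (pH 4,0) containing 0.1% BSA. Blood (0.3 ml) was drawn from the neck vein immediately before dosing and at set times afterward. Serum was separated by centrifuging at 3500 rpm for 20 minutes. Calcium was measured on a TBA-380 analyzer with a Wako o-cpc kit, and the percentage reduction in serum calcium was calculated.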

[1] = concentration 83 ng/ml, 0 hour (just before administration)
[2] = concentration 83 ng/ml, 2 hours
[3] = concentration 83 ng/ml, 4 hours
[4] = concentration 83 ng/ml, 6 hours
[5] = concentration 830 ng/ml, 0 hour (just before administration)
[6] = concentration 830 ng/ml, 1 hour
[7] = concentration 830 ng/ml, 2 hours
[8] = concentration 830 ng/ml, 4 hours
[9] = concentration 830 ng/ml, 6 hours

Row | Molecule | Serum calcium level as percent of pre-dose baseline [1] [%] | Serum calcium level as percent of pre-dose baseline (concentration 83 ng/ml, 1 hour) [%] | Serum calcium level as percent of pre-dose baseline [2] [%] | Serum calcium level as percent of pre-dose baseline [3] [%] | Serum calcium level as percent of pre-dose baseline [4] [%] | Serum calcium level as percent of pre-dose baseline [5] [%] | Serum calcium level as percent of pre-dose baseline [6] [%] | Serum calcium level as percent of pre-dose baseline [7] [%] | Serum calcium level as percent of pre-dose baseline [8] [%] | Serum calcium level as percent of pre-dose baseline [9] [%] | Serum calcium level as percent of pre-dose baseline (concentration 166 ng/ml, 0 hour (just before administration)) [%] | Serum calcium level as percent of pre-dose baseline (concentration 166 ng/ml, 1 hour) [%] | Serum calcium level as percent of pre-dose baseline (concentration 166 ng/ml, 2 hours) [%] | Serum calcium level as percent of pre-dose baseline (concentration 166 ng/ml, 4 hours) [%] | Serum calcium level as percent of pre-dose baseline (concentration 166 ng/ml, 6 hours) [%]
1 | CC[C@H](C)[C@H](NC(=O)[C@H](C)NC(=O)[C@@H](NC(=O)[C@H](CCC(N)=O)NC(=O)[C@@H]1CCCN1C(=O)[C@H](Cc1ccc(O)cc1)NC(=O)[C@@H](NC(=O)[C@H](CCC(N)=O)NC(=O)[C@H](CC(C)C)NC(=O)[C@H](CCCCN)NC(=O)[C@H](Cc1c[nH]cn1)NC(=O)[C@H](CC(C)C)NC(=O)[C@H](CCC(=O)O)NC(=O)[C@H](CCC(N)=O)NC(=O)[C@H](CO)NC(=O)[C@H](CC(C)C)NC(=O)[C@H](CCCCN)NC(=O)CNC(=O)[C@H](CC(C)C)NC(=O)[C@H](CC(C)C)NC(=O)[C@@H]1CC(=O)NCCCC[C@H](N)C(=O)N[C@@H](CC(N)=O)C(=O)N[C@@H](CC(C)C)C(=O)N[C@@H](CO)C(=O)N[C@@H]([C@@H](C)O)C(=O)N1)[C@@H](C)O)[C@@H](C)O)C(=O)NCC(=O)N[C@H](C(=O)NCC(=O)N[C@@H](C)C(=O)N1CCC[C@H]1C(N)=O)C(C)C [Peptide No. 28] (H-KNLSTDLLGKLSQELHKLQTYPQTAIGVGAP-NH2; lactam 1-6) | 100.0 | 83.7 | 87.7 | 82.6 | 80.8 | 100.0 | 73.5 | 87.2 | 83.8 | 81.6 | – | – | – | – | –
2 | CC[C@H](C)[C@H](NC(=O)[C@H](C)NC(=O)[C@@H](NC(=O)[C@H](CCC(N)=O)NC(=O)[C@@H]1CCCN1C(=O)[C@H](Cc1ccc(O)cc1)NC(=O)[C@@H](NC(=O)[C@H](CCC(N)=O)NC(=O)[C@H](CC(C)C)NC(=O)[C@H](CCCCN)NC(=O)[C@H](Cc1c[nH]cn1)NC(=O)[C@H](CC(C)C)NC(=O)[C@H](CCC(=O)O)NC(=O)[C@H](CCC(N)=O)NC(=O)[C@H](CO)NC(=O)[C@H](CC(C)C)NC(=O)[C@H](CCCCN)NC(=O)CNC(=O)[C@H](CC(C)C)NC(=O)[C@H](CC(C)C)NC(=O)[C@@H]1CCCNC(=O)CC[C@H](N)C(=O)N[C@@H](CC(N)=O)C(=O)N[C@@H](CC(C)C)C(=O)N[C@@H](CO)C(=O)N[C@@H]([C@@H](C)O)C(=O)N1)[C@@H](C)O)[C@@H](C)O)C(=O)NCC(=O)N[C@H](C(=O)NCC(=O)N[C@@H](C)C(=O)N1CCC[C@H]1C(N)=O)C(C)C [Peptide No. 29] (H-ENLST[Orn]LLGKLSQELHKLQTYPQTAIGVGAP-NH2; lactam 1-6) | 100.0 | 84.6 | 91.7 | 83.2 | 76.6 | 100.0 | 75.0 | 84.7 | 78.0 | 73.1 | – | – | – | – | –
3 | CC[C@H](C)[C@H](NC(=O)[C@H](C)NC(=O)[C@@H](NC(=O)[C@H](CCC(N)=O)NC(=O)[C@@H]1CCCN1C(=O)[C@H](Cc1ccc(O)cc1)NC(=O)[C@@H](NC(=O)[C@H](CCC(N)=O)NC(=O)[C@H](CC(C)C)NC(=O)[C@H](CCCCN)NC(=O)[C@H](Cc1c[nH]cn1)NC(=O)[C@H](CC(C)C)NC(=O)[C@H](CCC(=O)O)NC(=O)[C@H](CCC(N)=O)NC(=O)[C@H](CO)NC(=O)[C@H](CC(C)C)NC(=O)[C@H](CCCCN)NC(=O)CNC(=O)[C@H](CC(C)C)NC(=O)[C@H](CC(C)C)NC(=O)[C@@H]1CCC(=O)NCCC[C@H](N)C(=O)N[C@@H](CC(N)=O)C(=O)N[C@@H](CC(C)C)C(=O)N[C@@H](CO)C(=O)N[C@@H]([C@@H](C)O)C(=O)N1)[C@@H](C)O)[C@@H](C)O)C(=O)NCC(=O)N[C@H](C(=O)NCC(=O)N[C@@H](C)C(=O)N1CCC[C@H]1C(N)=O)C(C)C [Peptide No. 30] (H-[Orn]NLSTELLGKLSQELHKLQTYPQTAIGVGAP-NH2; lactam 1-6) | 100.0 | 77.2 | 80.7 | 83.2 | 77.7 | 100.0 | 74.0 | 63.8 | 65.4 | 73.9 | – | – | – | – | –
4 | CC[C@H](C)[C@H](NC(=O)[C@H](C)NC(=O)[C@@H](NC(=O)[C@H](CCC(N)=O)NC(=O)[C@@H]1CCCN1C(=O)[C@H](Cc1ccc(O)cc1)NC(=O)[C@@H](NC(=O)[C@H](Cc1c[nH]cn1)NC(=O)[C@H](Cc1ccccc1)NC(=O)[C@H](CCCCN)NC(=O)[C@H](CC(N)=O)NC(=O)[C@H](CC(C)C)NC(=O)[C@H](CC(=O)O)NC(=O)[C@H](CCC(N)=O)NC(=O)[C@H](CO)NC(=O)[C@H](CC(C)C)NC(=O)[C@H](CCCCN)NC(=O)CNC(=O)[C@H](CC(C)C)NC(=O)[C@H](CC(C)C)NC(=O)[C@@H]1CCCCNC(=O)C[C@H](N)C(=O)N[C@@H](CC(N)=O)C(=O)N[C@@H](CC(C)C)C(=O)N[C@@H](CO)C(=O)N[C@@H]([C@@H](C)O)C(=O)N1)[C@@H](C)O)[C@@H](C)O)C(=O)NCC(=O)N[C@H](C(=O)NCC(=O)N[C@@H](C)C(=O)N1CCC[C@H]1C(N)=O)C(C)C [Peptide No. 31] (H-DNLSTKLLGKLSQDLNKFHTYPQTAIGVGAP-NH2; lactam 1-6) | 100.0 | 79.1 | 72.7 | 77.5 | 74.3 | 100.0 | 74.3 | 65.6 | 57.3 | 49.6 | – | – | – | – | –
5 | CC[C@H](C)[C@H](NC(=O)[C@H](C)NC(=O)[C@@H](NC(=O)[C@H](CCC(N)=O)NC(=O)[C@@H]1CCCN1C(=O)[C@H](Cc1ccc(O)cc1)NC(=O)[C@@H](NC(=O)[C@H](Cc1c[nH]cn1)NC(=O)[C@H](Cc1ccccc1)NC(=O)[C@H](CCCCN)NC(=O)[C@H](CC(N)=O)NC(=O)[C@H](CC(C)C)NC(=O)[C@H](CC(=O)O)NC(=O)[C@H](CCC(N)=O)NC(=O)[C@H](CO)NC(=O)[C@H](CC(C)C)NC(=O)[C@H](CCCCN)NC(=O)CNC(=O)[C@H](CC(C)C)NC(=O)[C@H](CC(C)C)NC(=O)[C@@H]1CCCCNC(=O)CCC(=O)N[C@@H](CC(N)=O)C(=O)N[C@@H](CC(C)C)C(=O)N[C@@H](CO)C(=O)N[C@@H]([C@@H](C)O)C(=O)N1)[C@@H](C)O)[C@@H](C)O)C(=O)NCC(=O)N[C@H](C(=O)NCC(=O)N[C@@H](C)C(=O)N1CCC[C@H]1C(N)=O)C(C)C [Peptide No. 32] (NLSTKLLGKLSQDLNKFHTYPQTAIGVGAP-NH2; linker N-5 via Suc) | 100.0 | 82.4 | 76.1 | 79.1 | 84.1 | 100.0 | 84.5 | 73.6 | 65.9 | 64.2 | – | – | – | – | –
6 | CC[C@H](C)[C@H](NC(=O)[C@H](C)NC(=O)[C@@H](NC(=O)[C@H](CCC(N)=O)NC(=O)[C@@H]1CCCN1C(=O)[C@H](Cc1ccc(O)cc1)NC(=O)[C@@H](NC(=O)[C@H](Cc1c[nH]cn1)NC(=O)[C@H](Cc1ccccc1)NC(=O)[C@H](CCCCN)NC(=O)[C@H](CC(N)=O)NC(=O)[C@H](CC(C)C)NC(=O)[C@H](CC(=O)O)NC(=O)[C@H](CCC(N)=O)NC(=O)[C@@H](NC(=O)[C@H](CC(C)C)NC(=O)[C@H](CCCCN)NC(=O)CNC(=O)[C@H](CC(C)C)NC(=O)[C@H](CC(C)C)NC(=O)[C@@H]1CCCCNC(=O)CCC(=O)N[C@@H](CC(N)=O)C(=O)N[C@@H](CC(C)C)C(=O)N[C@@H](CO)C(=O)N[C@@H]([C@@H](C)O)C(=O)N1)[C@@H](C)O)[C@@H](C)O)[C@@H](C)O)C(=O)NCC(=O)N[C@H](C(=O)NCC(=O)N[C@@H](C)C(=O)N1CCC[C@H]1C(N)=O)C(C)C [Peptide No. 33] (NLSTKLLGKLTQDLNKFHTYPQTAIGVGAP-NH2; linker N-5 via Suc) | 100.0 | 78.2 | 70.0 | 92.4 | 86.0 | 100.0 | 80.8 | 71.8 | 63.5 | 55.1 | – | – | – | – | –
7 | AGNLSTAMLGKLSQELHKGQTYPQTAIGVGAP-NH2 [Peptide No. 17] | – | – | – | – | – | – | – | – | – | – | 100.0 | 77.6 | 71.5 | 79.7 | 83.2
